According to ChEMBL document CHEMBL1201862, “PubChem BioAssay data set” (2004):
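Dose response: 5 concentrations. Exposure: 48 h. Format: 96-well plates. Endpoint: linear interpolation; highest concentration if not reached. GI50 marks 50% less growth.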 Activity calls are given as the source filed them. Rule as the data show it: active = GI50 up to about 1.1 µM and inactive = higher.

How the values were obtained:
Test in all cases: NCI tumour cell line growth inhibition, 48 h
OVCAR-5 = tested on: OVCAR-5
HOP-62 = tested on: HOP-62
SK-MEL-28 = tested on: SK-MEL-28
M14 = tested on: M14
COLO 205 = tested on: COLO 205
UO-31 = tested on: UO-31
MOLT-4 = tested on: MOLT-4
MDA-MB-435 = tested on: MDA-MB-435
HCT-116 = tested on: HCT-116
SR = tested on: SR
UACC-257 = tested on: UACC-257
NCI/ADR-RES = tested on: NCI/ADR-RES
HCT-15 = tested on: HCT-15
MDA-MB-231 = tested on: MDA-MB-231
Malme-3M = tested on: Malme-3M
T47D = tested on: T47D
LOX IMVI = tested on: LOX IMVI
NCI-H23 = tested on: NCI-H23
IGROV-1 = tested on: IGROV-1
ACHN = tested on: ACHN
SF-295 = tested on: SF-295
OVCAR-8 = tested on: OVCAR-8
A549 = tested on: A549
SN12C = tested on: SN12C
SK-MEL-5 = tested on: SK-MEL-5
OVCAR-4 = tested on: OVCAR-4
K562 = tested on: K562
BT-549 = tested on: BT-549
MCF7 = tested on: MCF7
SNB-75 = tested on: SNB-75
SW-620 = tested on: SW-620
SK-MEL-2 = tested on: SK-MEL-2
EKVX = tested on: EKVX
786-0 = tested on: 786-0
SK-OV-3 = tested on: SK-OV-3
KM12 = tested on: KM12
TK-10 = tested on: TK-10
RXF 393 = tested on: RXF 393
CAKI-1 = tested on: CAKI-1
SNB-19 = tested on: SNB-19
DU-145 = tested on: DU-145
HT-29 = tested on: HT-29
CCRF-CEM = tested on: CCRF-CEM
Hs-578T = tested on: Hs-578T
NCI-H522 = tested on: NCI-H522
RPMI-8226 = tested on: RPMI-8226
HL-60 = tested on: HL-60
SF-268 = tested on: SF-268
HOP-92 = tested on: HOP-92
UACC-62 = tested on: UACC-62
NCI-H226 = tested on: NCI-H226
U-251 = tested on: U-251
PC-3 = tested on: PC-3
SF-539 = tested on: SF-539
NCI-H460 = tested on: NCI-H460
OVCAR-3 = tested on: OVCAR-3
A498 = tested on: A498
MDA-N = tested on: MDA-N
HCC 2998 = tested on: HCC 2998

## COc1ccc(C(c2cc3c(cc2O)OCO3)N2CCOCC2)cc1OC (centres undefined)
OVCAR-5
  GI50: 9.95 µM (inactive)
HOP-62
  GI50: 15.7 µM (inactive)
SK-MEL-28
  GI50: 17.5 µM (inactive)
M14
  GI50: 12.4 µM (inactive)
COLO 205
  GI50: 15.3 µM (inactive)
UO-31
  GI50: 11.1 µM (inactive)
MOLT-4
  GI50: 3.48 µM (inactive)
MDA-MB-435
  GI50: 11.3 µM (inactive)
HCT-116
  GI50: 10.9 µM (inactive)
SR
  GI50: 1.89 µM (inactive)
UACC-257
  GI50: 15.7 µM (inactive)
NCI/ADR-RES
  GI50: 5.89 µM (inactive)
HCT-15
  GI50: 3.95 µM
MDA-MB-231
  GI50: 3.5 µM (inactive)
Malme-3M
  GI50: 13.1 µM (inactive)
T47D
  GI50: 16.9 µM (inactive)
LOX IMVI
  GI50: 4.01 µM (inactive)
NCI-H23
  GI50: 4.15 µM (inactive)
IGROV-1
  GI50: 14.9 µM (inactive)
ACHN
  GI50: 11.4 µM (inactive)
SF-295
  GI50: 14.2 µM (inactive)
OVCAR-8
  GI50: 5.02 µM (inactive)
A549
  GI50: 22.4 µM (inactive)
SN12C
  GI50: 10.2 µM (inactive)
SK-MEL-5
  GI50: 13.5 µM (inactive)
OVCAR-4
  GI50: 15.6 µM (inactive)
K562
  GI50: 7.6 µM (inactive)
BT-549
  GI50: 5.28 µM (inactive)
MCF7
  GI50: 12.8 µM (inactive)
SNB-75
  GI50: 15.3 µM (inactive)
SW-620
  GI50: 2.72 µM (inactive)
SK-MEL-2
  GI50: 16.6 µM (inactive)
EKVX
  GI50: 19.1 µM (inactive)
786-0
  GI50: 11.1 µM (inactive)
SK-OV-3
  GI50: 14.1 µM (inactive)
KM12
  GI50: 12.4 µM (inactive)
TK-10
  GI50: 13.4 µM (inactive)
RXF 393
  GI50: 18.8 µM (inactive)
CAKI-1
  GI50: 12.8 µM (inactive)
SNB-19
  GI50: 16.7 µM (inactive)
DU-145
  GI50: 12.1 µM (inactive)
HT-29
  GI50: 12.9 µM (inactive)
CCRF-CEM
  GI50: 0.327 µM (active)
Hs-578T
  GI50: 2.75 µM (inactive)
NCI-H522
  GI50: 3.28 µM (inactive)
RPMI-8226
  GI50: 2.66 µM (inactive)
HL-60
  GI50: 25.4 µM (inactive)
SF-268
  GI50: 10.9 µM (inactive)
HOP-92
  GI50: 16 µM (inactive)
UACC-62
  GI50: 5.75 µM (inactive)
NCI-H226
  GI50: 11.1 µM (inactive)
U-251
  GI50: 9.64 µM (inactive)
PC-3
  GI50: 11.1 µM (inactive)
SF-539
  GI50: 14.6 µM (inactive)
NCI-H460
  GI50: 22 µM (inactive)
OVCAR-3
  GI50: 7.8 µM (inactive)

## O=C(Nc1ccc(F)cc1)c1cc2ccc(O)cc2o/c1=N\c1ccccc1F
OVCAR-5
  GI50: 29.1 µM (inactive)
HOP-62
  GI50: 11.5 µM (inactive)
SK-MEL-28
  GI50: 32.1 µM (inactive)
COLO 205
  GI50: > 100 µM (inactive)
MOLT-4
  GI50: 26.5 µM (inactive)
MDA-MB-435
  GI50: 27.9 µM (inactive)
A498
  GI50: 37.6 µM (inactive)
HCT-116
  GI50: 24.8 µM (inactive)
SR
  GI50: 36.1 µM (inactive)
UACC-257
  GI50: 27.6 µM (inactive)
NCI/ADR-RES
  GI50: 15.6 µM (inactive)
HCT-15
  GI50: 18.9 µM
Malme-3M
  GI50: 50 µM (inactive)
T47D
  GI50: 14.8 µM (inactive)
LOX IMVI
  GI50: 19.4 µM (inactive)
NCI-H23
  GI50: 1.62 µM (inactive)
IGROV-1
  GI50: 10.1 µM (inactive)
ACHN
  GI50: 20 µM (inactive)
SF-295
  GI50: 30.7 µM (inactive)
OVCAR-8
  GI50: 13.7 µM (inactive)
SN12C
  GI50: 51.8 µM (inactive)
SK-MEL-5
  GI50: 10.7 µM (inactive)
OVCAR-4
  GI50: 21.3 µM (inactive)
K562
  GI50: 11.1 µM (inactive)
BT-549
  GI50: 14.8 µM (inactive)
MCF7
  GI50: 28.8 µM (inactive)
SW-620
  GI50: 34.2 µM (inactive)
SK-MEL-2
  GI50: 29.3 µM (inactive)
MDA-N
  GI50: 34.6 µM (inactive)
EKVX
  GI50: 13.5 µM (inactive)
786-0
  GI50: 24.4 µM (inactive)
SK-OV-3
  GI50: 12 µM (inactive)
KM12
  GI50: 26.2 µM (inactive)
CAKI-1
  GI50: 33.5 µM (inactive)
DU-145
  GI50: 34.4 µM (inactive)
HT-29
  GI50: > 100 µM (inactive)
CCRF-CEM
  GI50: 17 µM (inactive)
Hs-578T
  GI50: 26.8 µM (inactive)
NCI-H522
  GI50: 12.1 µM (inactive)
RPMI-8226
  GI50: 8.04 µM (inactive)
HL-60
  GI50: 18.6 µM (inactive)
SF-268
  GI50: 29.1 µM (inactive)
UACC-62
  GI50: 22.6 µM (inactive)
U-251
  GI50: 19.9 µM (inactive)
PC-3
  GI50: 32.3 µM (inactive)
SF-539
  GI50: 42.7 µM (inactive)
NCI-H460
  GI50: 18.8 µM (inactive)
HCC 2998
  GI50: 33.7 µM (inactive)
OVCAR-3
  GI50: 27.9 µM (inactive)

## N#CC1=C(N)Nc2nc3ccccc3n2C1c1ccccc1 (centres undefined)
OVCAR-5
  GI50: > 100 µM (inactive)
HOP-62
  GI50: 88.1 µM (inactive)
M14
  GI50: > 100 µM (inactive)
COLO 205
  GI50: > 100 µM (inactive)
UO-31
  GI50: 64.3 µM (inactive)
MOLT-4
  GI50: 49 µM (inactive)
MDA-MB-435
  GI50: 45.6 µM (inactive)
A498
  GI50: 21.6 µM (inactive)
HCT-116
  GI50: 29.8 µM (inactive)
SR
  GI50: 83.6 µM (inactive)
UACC-257
  GI50: > 100 µM (inactive)
NCI/ADR-RES
  GI50: > 100 µM (inactive)
HCT-15
  GI50: 44.7 µM
MDA-MB-231
  GI50: 45.9 µM (inactive)
T47D
  GI50: 20.2 µM (inactive)
LOX IMVI
  GI50: 62.7 µM (inactive)
NCI-H23
  GI50: > 100 µM (inactive)
IGROV-1
  GI50: 51.5 µM (inactive)
ACHN
  GI50: 23.3 µM (inactive)
SF-295
  GI50: 27.7 µM (inactive)
OVCAR-8
  GI50: 55.1 µM (inactive)
A549
  GI50: 42 µM (inactive)
SN12C
  GI50: > 100 µM (inactive)
SK-MEL-5
  GI50: 37.6 µM (inactive)
K562
  GI50: 59.7 µM (inactive)
BT-549
  GI50: 23.8 µM (inactive)
MCF7
  GI50: 97.7 µM (inactive)
SW-620
  GI50: 55.6 µM (inactive)
SK-MEL-2
  GI50: 77.8 µM (inactive)
EKVX
  GI50: 9.2 µM (inactive)
786-0
  GI50: 34 µM (inactive)
SK-OV-3
  GI50: 83.4 µM (inactive)
KM12
  GI50: 53.7 µM (inactive)
RXF 393
  GI50: 16.1 µM (inactive)
CAKI-1
  GI50: 46.8 µM (inactive)
SNB-19
  GI50: > 100 µM (inactive)
DU-145
  GI50: 35.3 µM (inactive)
HT-29
  GI50: 33.7 µM (inactive)
CCRF-CEM
  GI50: 6.44 µM (inactive)
Hs-578T
  GI50: 24.7 µM (inactive)
RPMI-8226
  GI50: 6.41 µM (inactive)
HL-60
  GI50: > 100 µM (inactive)
SF-268
  GI50: 46.7 µM (inactive)
UACC-62
  GI50: 56.6 µM (inactive)
U-251
  GI50: 42.9 µM (inactive)
PC-3
  GI50: 46.1 µM (inactive)
SF-539
  GI50: > 100 µM (inactive)
NCI-H460
  GI50: 45.7 µM (inactive)
OVCAR-3
  GI50: 30.5 µM (inactive)
